Results: patent US20040106590A1, “Methods and reagents for treating infections of clostridium difficile and diseases associated therewith” (priority 2002, published 2004)
Converted amounts (≈) assume the structure as drawn.

Columns and labels:
Format in all cases: cell-based
B. theta 29741 = assay: MIC by agar dilution, QC organism B. theta 29741; conditions: QC B. theta 29741, 48 h anaerobic
B. frag 25285 = assay: MIC by agar dilution, QC organism B. frag 25285; conditions: QC B. frag 25285, 48 h anaerobic
C. difficile = assay: MIC by agar dilution (NCCLS M11-A5) on C. difficile strains; conditions: for MIC: Clostridioides difficile; for susceptibility of strains: Strains 80 and 29-5-30
[1] = ATCC43255, Sample 31, QC C. diff ATCC 43255
[2] = Sample 23, C. difficile 11-5-03
[3] = Sample 24, C. difficile 13-5-03
[4] = Sample 25, C. difficile 14-5-03
[5] = Sample 26, C. difficile 16-5-03
[6] = Sample 27, C. difficile 17-5-03
[7] = Sample 28, C. difficile 19-5-03
[8] = Sample 29, C. difficile 22-5-03
[9] = Sample 30, C. difficile 29-5-03

Row | MIC (B. theta 29741) [µg/mL] | MIC (B. frag 25285) [µg/mL] | MIC (C. difficile; [1]) [µg/mL] | MIC (C. difficile; Sample 1, C. difficile 18) [µg/mL] | MIC (C. difficile; Sample 2, C. difficile 22) [µg/mL] | MIC (C. difficile; Sample 3, C. difficile 28) [µg/mL] | MIC (C. difficile; Sample 4, C. difficile 40) [µg/mL] | MIC (C. difficile; Sample 5, C. difficile 44) [µg/mL] | MIC (C. difficile; Sample 6, C. difficile 50) [µg/mL] | MIC (C. difficile; Sample 7, C. difficile 60) [µg/mL] | MIC (C. difficile; Sample 8, C. difficile 70) [µg/mL] | MIC (C. difficile; Sample 9, C. difficile 80) [µg/mL] | MIC (C. difficile; Sample 10, C. difficile 101) [µg/mL] | MIC (C. difficile; Sample 11, C. difficile 107) [µg/mL] | MIC (C. difficile; Sample 12, C. difficile 113) [µg/mL] | MIC (C. difficile; Sample 13, C. difficile 116) [µg/mL] | MIC (C. difficile; Sample 14, C. difficile 143) [µg/mL] | MIC (C. difficile; Sample 15, C. difficile 146) [µg/mL] | MIC (C. difficile; Sample 16, C. difficile 154) [µg/mL] | MIC (C. difficile; Sample 17, C. difficile 166) [µg/mL] | SMILES | further results
1 | 0.03 (≈ 0.0319 µM) | 0.03 (≈ 0.0319 µM) | 0.002 (≈ 0.00213 µM) | 0.001 (≈ 0.00106 µM) | 0.001 (≈ 0.00106 µM) | 0.002 (≈ 0.00213 µM) | 0.001 (≈ 0.00106 µM) | 0.001 (≈ 0.00106 µM) | 0.002 (≈ 0.00213 µM) | 0.002 (≈ 0.00213 µM) | 0.001 (≈ 0.00106 µM) | > 20.5 | 0.004 (≈ 0.00425 µM) | 0.001 (≈ 0.00106 µM) | 0.004 (≈ 0.00425 µM) | 0.002 (≈ 0.00213 µM) | ≤ 0.0005 | 0.001 (≈ 0.00106 µM) | ≤ 0.0005 | 0.001 (≈ 0.00106 µM) | CO[C@H]1/C=C/O[C@@]2(C)Oc3c(C)c(O)c4c(=O)c(c5oc6cc(N7CCN(CC(C)C)CC7)cc(O)c6nc-5c4c3C2=O)NC(=O)/C(C)=C\C=C\[C@H](C)[C@H](O)[C@@H](C)[C@@H](O)[C@@H](C)[C@H](OC(C)=O)[C@@H]1C [ABI1648, 3′-hydroxy-5′-(4-isobutyl-1-piperazinyl) benzoxazinorifamycin] | MIC (C. difficile; Sample 18, C. difficile 199): ≤ 0.0005 µg/mL; MIC (C. difficile; Sample 19, C. difficile 65C): 0.002 µg/mL (≈ 0.00213 µM); MIC (C. difficile; Sample 20, C. difficile 5-5-03): 0.002 µg/mL (≈ 0.00213 µM); MIC (C. difficile; Sample 21, C. difficile 6-5-03): 0.002 µg/mL (≈ 0.00213 µM); MIC (C. difficile; Sample 22, C. difficile 7-5-03): 0.002 µg/mL (≈ 0.00213 µM); MIC (C. difficile; [2]): 0.001 µg/mL (≈ 0.00106 µM); MIC (C. difficile; [3]): ≤ 0.0005 µg/mL; MIC (C. difficile; [4]): 0.001 µg/mL (≈ 0.00106 µM); MIC (C. difficile; [5]): 0.008 µg/mL (≈ 0.0085 µM); MIC (C. difficile; [6]): 0.002 µg/mL (≈ 0.00213 µM); MIC (C. difficile; [7]): 0.002 µg/mL (≈ 0.00213 µM); MIC (C. difficile; [8]): 0.001 µg/mL (≈ 0.00106 µM); MIC (C. difficile; [9]): > 0.5 µg/mL; susceptibility of strains (C. difficile): less susceptible; effectiveness compared with metronidazole (C. difficile; against almost all 31 strains of C. difficile): much more effective than metronidazole
2 | 2 (≈ 11.7 µM) | 1 (≈ 5.84 µM) | 0.5 (≈ 2.92 µM) | 0.5 (≈ 2.92 µM) | 0.5 (≈ 2.92 µM) | 0.5 (≈ 2.92 µM) | 0.5 (≈ 2.92 µM) | 0.5 (≈ 2.92 µM) | 0.5 (≈ 2.92 µM) | 0.5 (≈ 2.92 µM) | 0.25 (≈ 1.46 µM) | 0.5 (≈ 2.92 µM) | 0.5 (≈ 2.92 µM) | 0.5 (≈ 2.92 µM) | 0.5 (≈ 2.92 µM) | 0.25 (≈ 1.46 µM) | 0.5 (≈ 2.92 µM) | 0.5 (≈ 2.92 µM) | 0.25 (≈ 1.46 µM) | 0.5 (≈ 2.92 µM) | Cc1ncc([N+](=O)[O-])n1CCO [Metronidazole, metronidazole, reference compound] | MIC (C. difficile; Sample 18, C. difficile 199): 0.25 µg/mL (≈ 1.46 µM); MIC (C. difficile; Sample 19, C. difficile 65C): 0.5 µg/mL (≈ 2.92 µM); MIC (C. difficile; Sample 20, C. difficile 5-5-03): 0.5 µg/mL (≈ 2.92 µM); MIC (C. difficile; Sample 21, C. difficile 6-5-03): 0.5 µg/mL (≈ 2.92 µM); MIC (C. difficile; Sample 22, C. difficile 7-5-03): 0.25 µg/mL (≈ 1.46 µM); MIC (C. difficile; [2]): 0.5 µg/mL (≈ 2.92 µM); MIC (C. difficile; [3]): 0.5 µg/mL (≈ 2.92 µM); MIC (C. difficile; [4]): 0.5 µg/mL (≈ 2.92 µM); MIC (C. difficile; [5]): 0.5 µg/mL (≈ 2.92 µM); MIC (C. difficile; [6]): 0.25 µg/mL (≈ 1.46 µM); MIC (C. difficile; [7]): 0.5 µg/mL (≈ 2.92 µM); MIC (C. difficile; [8]): 0.25 µg/mL (≈ 1.46 µM); MIC (C. difficile; [9]): 0.5 µg/mL (≈ 2.92 µM); susceptibility of strains (C. difficile): less susceptible
